From patent US7744927B2, “Methods of promoting hematopoietic and mesenchymal cell proliferation and differentiation” (University of Southern California, priority 1997, dated 2010)

Assays:
[1] = tested on: murine HPC; experiment: Murine HPC colony formation in the absence of colony stimulating factors; assay type: cell-based, C57B1/6 mice; conditions: 14 days
Description: HPC were harvested from C57B1/6 mice by immunomagnetic affinity chromatography and placed in semi-solid cultures with optimal growth medium in the absence of colony stimulating factors. At various times after initiation of culture, the formation of colonies and the size of the colonies (number of cells/colony) was assessed microscopically.
(§1) Female C57B1/6 mice were purchased from Simonson and used as a source of bone marrow cells in this study. The bone marrow was harvested from the femur and tibia of mice by flushing with phosphate buffered saline (PBS), pH 7.4, containing 2% fetal bovine serum (FBS) with a 21-gauge needle. The eluant from the flushing was centrifuged and the pellet was resuspended at 4×10^7 nucleated cells/ml in PBS containing PBS containing 2% FBS and 5% normal rat serum.
The reagents for immunomagnetic labeling were purchased from Stem Cell Technologies, Inc. (Vancouver, BC). Biotin-labeled monoclonal antibodies to the following murine lineage-specific cell surface antigens were included in a cocktail for HPC enrichment and used according to the manufacturer's instructions: CD5 (Ly-1), CD45-R (B220), CD11b (Mac-1), Myeloid Differentiation Antigen (Gr-1) and Erythroid Cells (TER 119) Ten μl of antibody cocktail was added to the bone marrow, mixed and allowed to incubate at 4° C. for 15 minutes. […]

[2] = tested on: murine HPC; experiment: Murine HPC colony formation in semi-solid culture with colony stimulating factors; assay type: cell-based, C57B1/6 mice; conditions: for macroscopic colonies: day 14, enriched HPC from untreated (normal) mice
Description: HPC were harvested from C57B1/6 mice by immunomagnetic affinity chromatography and placed in semi-solid cultures with optimal growth medium. At various times after initiation of culture, the formation of colonies and the size of the colonies (number of cells/colony) was assessed microscopically.
as §1, with “harvested, either from untreated mice or from mice injected with 5-fluorouracil (5-FU) (3 mg/mouse; approximately 150 mg/kg) in the tail vein 48 hours before harvest,” for “harvested”
The reagents for immunomagnetic labeling were purchased from Stem Cell Technologies, Inc. (Vancouver, BC). Biotin-labeled monoclonal antibodies to the following murine lineage-specific cell surface antigens were included in a cocktail for HPC enrichment and used according to the manufacturer's instructions: CD5 (Ly-1), CD45-R (B220), CD11b (Mac-1), Myeloid Differentiation Antigen (Gr-1) and Erythroid Cells (TER 119) Ten μl of antibody cocktail was added for each of the 2 sets of bone marrow (normal and 5-FU-treated), mixed and allowed to incubate at 4° C. for 15 minutes. The cells were then resuspended at 4×10^7 cells/ml in PBS containing 2% FBS. The antibody cocktail was then washed out and 100 μl anti-biotin tetramer was added for each ml of cells. The suspension was mixed and incubated at 4° C. for 15 minutes. Sixty μl of magnetic colloid was then added for each ml of cells, the combination was mixed and incubated at 4° C. for 15 minutes to yield the immunomagnetically-labeled bone marrow cells.
A column containing a stainless steel matrix was prepared by washing the matrix with PBS followed by washing with PBS containing 2% protein. […]

[3] = tested on: human peripheral blood mononuclear cells (PBMC); experiment: Respiratory burst (hydrogen peroxide generation), human PBMC; assay type: cell-based; conditions: alone and in response to PMA 10 ng/ml; 4 hours exposure
Description: The respiratory burst of leukocytes (macrophages and polymorphonuclear neutrophils) is one component of the mediator system used to kill bacteria. As with phagocytosis, the level of this respiratory burst activity in resident macrophages is low. […] Studies were conducted to assess the effect of in vitro exposure of murine or rat peritoneal macrophages and human peripheral blood mononuclear cells (PBMC) to various concentrations of AII on the capacity to generate hydrogen peroxide via the respiratory burst system. For the human studies, five different donors were examined.
The murine or rat peritoneal cells were harvested by lavage with 5-15 ml of cold PBS with 0.5% bovine serum albumin. The human PBMC were harvested by venipuncture from normal human volunteers and isolated from peripheral blood by Ficoll Hypaque density centrifugation. After isolation, the cells were resuspended at 1×10^6 cells/ml and placed at 100 μl per well into 96 well plates. The cells were incubated with various concentrations of AII or AII analogues for 4 hours at 37° C. The cells were then preloaded with a fluorescent probe for hydrogen peroxide, 2,7 dichlorofluorescein acetate, which is nonfluorescent in the absence of hydrogen peroxide. Fifteen minutes later, 10 ng/ml of phorbol myristate acetate (+PMA) or PBS (−PMA) was added to stimulate the production of hydrogen peroxide. One hour after stimulation the level of fluorescence produced was measured on a Cytofluor 2350 multiwell fluorometer.

“Asp-Arg-Val-Tyr-Ile-His-Pro-Phe [AII, known pressor agent, commercially available]” was tested, and the “HPC colony size / HPC proliferation” value [1] was “HPC colony size increases proportionately”, the “HPC colony size / HPC proliferation” value ([2]; 0 to 100 μg/ml, normal and 5-FU treated bone marrow) was “HPC colony size increases proportionately” and the macroscopic colonies ([2]; 10 μg/ml) was 18. For the same substance, the macroscopic colonies ([2]; 100 μg/ml) was 10 and the “ability to generate hydrogen peroxide (respiratory burst)” value [3] was “increased the ability of leukocytes to generate hydrogen peroxide”.
